Read-outs that look alike come from different tables or passages of the source.

In assay [1] the target is T1, NADPH oxidase of the neutrophils (Homo sapiens, UniProt P04839).
T1 construct: Neutrophils were isolated from 30 ml freshly drawn heparinized whole blood; endogenous in cells; host or cells: neutrophils isolated from freshly drawn heparinized whole blood
T1 sequence (P04839 2-570 limits assumed): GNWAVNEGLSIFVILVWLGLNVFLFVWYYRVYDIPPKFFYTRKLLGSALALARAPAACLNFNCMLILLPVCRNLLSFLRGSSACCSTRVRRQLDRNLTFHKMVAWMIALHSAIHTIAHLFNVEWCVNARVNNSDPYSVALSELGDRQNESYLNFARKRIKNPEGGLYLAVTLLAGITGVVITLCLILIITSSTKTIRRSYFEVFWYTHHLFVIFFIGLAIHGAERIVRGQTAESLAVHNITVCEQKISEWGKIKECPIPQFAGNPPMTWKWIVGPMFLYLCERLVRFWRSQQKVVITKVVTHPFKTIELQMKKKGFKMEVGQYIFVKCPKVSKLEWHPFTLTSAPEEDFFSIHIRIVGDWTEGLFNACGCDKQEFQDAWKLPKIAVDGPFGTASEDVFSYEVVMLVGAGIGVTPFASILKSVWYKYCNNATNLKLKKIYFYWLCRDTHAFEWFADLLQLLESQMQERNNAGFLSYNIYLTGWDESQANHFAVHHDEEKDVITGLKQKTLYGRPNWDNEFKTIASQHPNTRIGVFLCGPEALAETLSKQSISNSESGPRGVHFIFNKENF
T1 sequence (P13498 2-195 partner limits assumed): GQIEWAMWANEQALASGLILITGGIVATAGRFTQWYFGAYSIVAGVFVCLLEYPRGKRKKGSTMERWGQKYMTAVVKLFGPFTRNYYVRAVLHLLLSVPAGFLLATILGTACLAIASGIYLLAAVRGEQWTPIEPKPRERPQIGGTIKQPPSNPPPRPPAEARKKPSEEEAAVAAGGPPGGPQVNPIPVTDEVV
The experiment in a line: Inhibition of reactive oxygen production (oxidative burst) by PMA-activated neutrophils, luminol enhanced chemiluminescence. The class given is cell-based. The following applies: for inhibition at 1000 µM: read-out: Inhibition of NADPH oxidase of the neutrophils at 1 mM. Here is the method:
Neutrophils were isolated from 30 ml freshly drawn heparinized whole blood, after dextran sedimentation of erythrocytes for 30 min. The leucocyte rich plasma was layered over an equal volume of Percoll (Sigma) and centrifuged at 400 g for 15 min. […] Neutrophils were washed with PBS (pH 7.1) and centrifuged at 200 g for 10 min. Cells were resuspended in fresh HBS (containing […], 0.4 g KCl, 0.06 g Na2 HPO4×2H2 O, 0.06 g KH2 PO4, 0.1 g MgSO4×7H2 O and 1 g glucose in 1000 ml of distilled water; pH adjusted to 7.4 by 7% NaHCO3) and counted before use.
One ml of cell suspension (final cell count 10^6 cells/ml) and the test compound was placed in cuvettes. Production of reactive oxygen by neutrophils ("oxidative burst") was stimulated by addition of phorbol-myristate-acetate (PMA; final concentration 2 μM). The luminol enhanced chemiluminescence was recorded.

Assay [2] relates to lipid peroxidation in rat liver microsomes. The experiment in a line: Inhibition of ascorbate/ADP-FeCl3-induced lipid peroxidation in rat liver microsomes (TBA reactive material). The following applies: rat liver microsomes 1.2 mg protein/ml, pH 6.0, 20 min at 37° C., read-out: IC50 values for the inhibition of microsomal lipid peroxidation, initiated by Ascorbate/ADP-FeCl3. The class given is biochemical, rat (Sprague-Dawley). On the technique in general: Microsomes from liver hold many membrane-bound enzymes, among them those of drug oxidation.
Description: (§2) Adult male Sprague-Dawley rats were decapitated, and the liver was excised and chilled in ice-cold 0.25 M sucrose solution. A 20% (w/v) liver homogenate was prepared in the sucrose solution (0° C.) with a homogenizer. Microsomes were prepared from the postmitochondrial (12000×g for 10 min at 4° C.) supernatant fluid by centrifugation (105000×g for 10 min at 4° C.).
(§3) The antioxidant properties of the compounds were estimated by their potency to inhibit t-butylhydroperoxide (t-BuOOH) or ascorbate/ADP-FeCl3 -induced lipid peroxidation in rat liver microsomes in vitro. In the t-BuOOH assay the buffer (50 mM sodium carbonate, pH 10.2, with 0.1 mM EDTA) was pipetted in a volume of 0.8 ml in the luminometer cuvette. 20 μl of diluted rat liver microsomes (final concentration 1.5 μg protein/ml) was added, followed by 6 μl of luminol (0.5 mg/ml) and test compounds. The reaction was initiated by 0.05 ml of 0.9 mM t-BuOOH at 33° C. The chemiluminescence was measured for about 45 min and the area under the curve was calculated. In the ascorbate/ADP-FeCl3 assay microsomes (final concentration 1.2 mg protein/ml) in 20 mM phosphate buffer, including 90 mM KCl, were incubated for 20 min at 37° C. in the presence of ascorbate (0.5 mM final concentration; pH of the buffer 6.0), ADP and FeCl3 (final concentrations 0.85 and 0.05 mM, respectively) and test compounds. Total incubation volume was 0.5 ml. The incubation was stopped by addition of 0.5 ml of 30% trichloroacetic acid plus 0.05 ml 2% butylated hydroxytoluene in ethanol. The extent of lipid peroxidation was estimated by the amount of thiobarbituric acid (TBA) reactive material formed.
(§4) IC50 value means concentration of test compound that inhibits lipid peroxidation by 50%.

Assay [3] has the same test system. The experiment in a line: Inhibition of t-butylhydroperoxide-induced lipid peroxidation in rat liver microsomes (luminol chemiluminescence). The assay is classed as biochemical, rat (Sprague-Dawley). The following applies: for IC50: t-BuOOH, rat liver microsomes 1.5 μg protein/ml, pH 10.2, 33° C., about 45 min, read-out: IC50 values for the inhibition of microsomal lipid peroxidation, initiated by t-Butylhydroperoxide; for antioxidant potency in the t-BuOOH test compared with butylated hydroxyanisole: in words, versus butylated hydroxyanisole.
Description: as §2, §3, §4

Assay [4] deals with serum lipid peroxides (diene conjugation). The experiment in a line: In vivo serum lipid peroxides, diene conjugation. The following applies: rats; daily oral gavage 12 and 48 mg/kg; 2 days to 12 months; FIG. 1. Details: species or system rat (female Sprague-Dawley). Here is the method:
(§1) Test compound was given to six-week old female Sprague-Dawley rats daily by oral gavage at doses of 12 and 48 mg/kg for 12 months. The vehicle, carboxymethyl cellulose (0.5%), was given to control animals. Five rats per dose group were killed after 2 days, 5 weeks, 3, 6 and 12 months of dosing. Further groups were allowed to recover for 13 weeks without treatment after 6 and 12 months' dosing. The serum levels of lipid peroxides were measured by two different methods (diene conjugation and TBA-reactive material). For the measurement of diene conjugation, lipids extracted from serum samples (100 μl) by chloroform/methanol (2:1), dried under nitrogen and redissolved in cyclohexane, were analyzed spectrophotometrically (at 234 nm). For the analysis of TBA-reactive material serum samples (100 μl) were diluted in phosphate buffer and heated together with a TBA solution ([…]) in a boiling water bath for 15 min. The tubes were cooled, and the absorbances measured at 535 nm.

Assay [5] deals with serum lipid peroxides (TBA-reactive material). The experiment in a line: In vivo serum lipid peroxides, TBA-reactive material. Details: species or system rat (female Sprague-Dawley). The note with it: rats; daily oral gavage 12 and 48 mg/kg; 2 days to 12 months; FIG. 2. As for the experimental part:
as §1

The mark [6] stands for this setting: PMA 2 μM, 10^6 cells/ml, read-out: IC50, inhibition of NADPH oxidase of the neutrophils.

For the compound `C[C@]12CC[C@@H]3c4ccc(O)cc4CC[C@H]3[C@@H]1CC[C@@H]2O` [17β-estradiol], the “Inhibition of NADPH oxidase of the neutrophils at 1 mM” value in assay [1] (1 mM, PMA 2 μM, 10^6 cells/ml) is on record as “no effect”. Moreover, the values for the IC50 in assay [2] and in assay [3] were 300 µM and 4.6 µM, respectively.
On to `CN(C)CCOc1ccc(/C(=C(/CCCl)c2ccccc2)c2ccccc2)cc1` [Compound 1, 4-chloro-1,2-diphenyl-1-[4-[2-(N,N-dimethylamino)ethoxy]phenyl]-1-butene], for which the IC50 was 2.17 µM in assay [1], 18 µM in assay [2] and 450 µM in assay [3]. Also, in assay [1], the inhibition at 1000 µM is more than 99%. Besides, the “effect on serum diene conjugation” value in assay [4] was “effective in decreasing both diene conjugation and TBA-reactive material in rats”. The “effect on serum TBA-reactive material” value in assay [5] is “effective in decreasing both diene conjugation and TBA-reactive material in rats”.
`CN(C)CCOc1ccc(/C(=C(/CCCl)c2ccccc2)c2ccc(O)cc2)cc1` [Compound 2, 4-chloro-1-(4-hydroxyphenyl)-1-[4-[2-(N,N-dimethylamino)ethoxy]phenyl]-2-phenyl-1-butene]: the inhibition at 1000 µM in assay [1] (1 mM, PMA 2 μM, 10^6 cells/ml) was more than 99%. The values for the IC50 in assay [1] (setting [6]), in assay [2] and in assay [3] were 2.12 µM, 8 µM and 0.18 µM, respectively. Further, in assay [3], the “antioxidant potency in the t-BuOOH test compared with butylated hydroxyanisole” value is on record as “even stronger than that of the known synthetic antioxidant butylated hydroxyanisole”.
For `CNCCOc1ccc(/C(=C(/CCCl)c2ccccc2)c2ccc(O)cc2)cc1` [Compound 3, 4-chloro-1-(4-hydroxyphenyl)-1-[4-[2-(N-methylamino)ethoxy]phenyl]-2-phenyl-1-butene], the IC50 in assay [2] stood at 31 µM; in assay [3], 27 µM.
Turning to `CN(C)CCOc1ccc(/C(=C(/CCI)c2ccccc2)c2ccccc2)cc1` [Compound 4, 4-iodo-1,2-diphenyl-1-[4-[2-(N,N-dimethylamino)ethoxy]phenyl]-1-butene], the inhibition at 1000 µM in assay [1] (1 mM, PMA 2 μM, 10^6 cells/ml) is more than 99%. Besides, the IC50 was found to be 2.32 µM in assay [1] (setting [6]), 3 µM in assay [2] and 0.38 µM in assay [3]. Besides, the “antioxidant potency in the t-BuOOH test compared with butylated hydroxyanisole” value in assay [3] was “even stronger than that of the known synthetic antioxidant butylated hydroxyanisole”.
Consider `CN(C)CCOc1ccc(/C(=C(\CCCl)c2ccccc2)c2ccccc2)cc1` [Compound 5, 4-chloro-1,2-diphenyl-1-[4-[2-(N,N-dimethylamino)ethoxy]phenyl]-1-butene], for which the results for the IC50 in assay [2] and in assay [3] were 36 µM and 410 µM, respectively.
With `Cc1c(C)c2c(c(C)c1O)CCC(C)(C(=O)O)O2` (stereo not shown) [Trolox], in assay [1] (1 mM, PMA 2 μM, 10^6 cells/ml), the “Inhibition of NADPH oxidase of the neutrophils at 1 mM” value is given as “no effect” and the inhibition at 1000 µM was 59%.
Turning to `COc1ccc(O)c(C(C)(C)C)c1` [butylated hydroxyanisole], the IC50 is 0.2 µM in assay [2] and 1.1 µM in assay [3].
In the case of `CC/C(=C(/CC)c1ccc(O)cc1)c1ccc(O)cc1` [diethylstilbestrol], in assay [1], the IC50 was found to be 8 µM and the inhibition at 1000 µM is more than 99%.
On to `Cc1c(C)c2c(c(C)c1O)CCC(C)(CCCC(C)CCCC(C)CCCC(C)C)O2` (stereo not drawn) [α-tocopherol], for which the figures for the IC50 in assay [2] and in assay [3] were 43 µM and 2 µM, respectively.

Broadly, the inhibition is the change of the read-out against control, counted positive when it falls.

The values above are taken from patent US6204295A, “Antioxidant compounds” (Orion Corporation, priority 1996, dated 2001).
